Assay results reported in patent publication US6262095A, “Use of tricyclic derivatives of 1,4-dihydro-1,4-dioxo-1H-naphthalene, novel compounds obtained and their application in theraphy” (Laboratoire Innothera, priority 1995, dated 2001).

What was measured:
[1] = tested on: capillary resistance of rats; experiment: Capillary resistance of rats after oral administration (petechial index); assay type: in vivo, rat (Wistar); conditions: rat
Description: The increase in the capillary resistance is evaluated by the modification of the petechial index (negative pressure inducing the extravasation of the erythrocytes), measured by a method derived from the angiosterrometer of Parrot.
The studies are carried out on male Wistar rats with an average weight of 200 g (approximate age six weeks). The bottom area of the back is shorn, then the hair is pulled by means of a paste based on a derivative of thioglycolic acid and calcium hydroxide. After approximately 30 min, the skin is abundantly rinsed and dried.
On the day of the study, the rats are maintained without constraint. A low pressure of 80 mm of mercury is applied. If the petechiae (extravasation of erythrocytes) have not appeared within 15 sec, the low pressure is increased as a countermeasure, keeping the suction cap at the same place.
The minimum low pressure where petechias appear, in mm of mercury, expresses the basal capillary resistance (before any treatment). Two measurements are made for each test at different sites on of the back.
The rats are treated by the oral route. […] All the measurements are done in the blind mode.
A percentage of variation in the capillary resistances of the animals treated compared to their basal capillary resistance is calculated for each compound studied, at each treatment time and compared with the control group (excipient only) or the reference group.

[2] = tested on: perfused mesenteric venous network of rats; experiment: Contraction of the perfused mesenteric venous network of rats; assay type: cell-based; conditions: rat perfused mesenteric venous network, depolarizing hyperpotassic conditions; read-out: ED50 (contraction)
Description: The contractile effects are also measured in vitro under dynamic flow conditions, by the pressure developed by the vascular beds that are perfused at a constant flow rate. At the mesenteric level, the selective effect on veins is studied using the model of a double simultaneous and separate infusion of the arterial and venous networks model developed by T. Warner (British J. Pharmacol., 1990, Vol. 99, pp. 427-433). The separation of the two networks is achieved by cutting the vessels and the tissues along the intestinal border. The networks are perfused at 2 mL.min^-1 with a Krebs solution (37.5° C.), which is aerated using 95% O2 and 5% CO2. In vivo, the arterial and venous pressures are measured in the anesthetized animal, under basal conditions and after circulatory arrest caused by the swelling of a balloon catheter introduced at the level of the left atrium. During the cardiac arrest, the venous tone (average circulatory filling pressure at a constant blood volume) is calculated from the venous and arterial pressures measured at equilibrium and corrected as a function of the relative differences in compliance between these two networks (Samar & Coleman, Am. J. Physiol., 1978, Vol. 234: pp. H94-100; Yamamoto et al., Am. J. Physiol., 1980, Vol. 238: pp. H823-828).

[3] = tested on: dorsal cutaneous chamber in hamsters; experiment: Dorsal cutaneous chamber in hamsters (microcirculation, histamine); assay type: in vivo; conditions: hamster, 28 mg/kg i.v. bolus, after histamine 1 mg/kg i.v.
Description: In the conscious animal, the arterial pressures are measured according to the classical method derived from Riva Rocci, by the analysis of the acoustical wave transmitted at the arterial level and transformed by a ceramic piezo transducer placed on the tail of the rat, downstream from a sleeve that is automatically inflated by a pressure generator. At the microcirculatory level, the variations in the sections of the veinules and arterioles are studied in vivo in the model of the dorsal cutaneous chamber of conscious hamsters, after a video microscopic recording (microscope Leitz Ergolux equipped with a halogen source for the illumination and its black-and-white CD video camera HPR 610) and computer analysis (software Visicap, Pack ICAP) of the images.
After anesthesia with sodium pentobarbital (60 mg/kg in i.p. administration), the back of the animal is shaved and hair is pulled so as to be able to put an observation chamber (Professor Gebhard, Heidelberg) on the back skin. The two parts of this chamber are sewn after careful removal of a certain level of skin thicknesses, which can impede the observation. A jugular catheter is placed for the i.v. administration of the products, 48 h after the operation.
The effect of the compounds on the hyperpermeability induced by inflammatory agents, such as histamine and bradykinin, is also studied after intravenous injection in a bolus in the model of the dorsal cutaneous chamber of hamsters and according to the method developed by Gimeno et al., described earlier ("A new technique using intravital videomicroscopy for macromolecular permeability measurement," 18th European Congress on Microcirculation, Rome, 1994) using videomicroscopy and image analysis by quantification of the distribution of the intra- and extravascular fluorescence of the fluorescent marker (FITC-Dextran) injected in a bolus through the jugular catheter (63 mg/kg for a volume defined at 1 mL/kg). The microscope is equipped with a fluorescence source and a combination of filters (excitation in the blue range 450-490 nm, and 515-nm stop filter).

[4] = tested on: pleurisy by carrageenin in rats; experiment: Pleurisy induced by carrageenin in rats; assay type: in vivo; conditions: rat, oral 3×5 mg
Description: The anti-inflammatory activity of the compounds is also studied by measuring the inhibition of the edema and the leukocyte migration after the induction of pleurisy in rats by the injection of carrageenin into the pleural cavity (Almeida et al., J. Pharmacol. Exp. Therap., 1980, Vol. 214: p. 74). The rats are treated orally using the compounds 2 h before the injection of carrageenin, and 2 and 4 h after this injection. After a predetermined time (6 h) following the induction of pleurisy, the rats are sacrificed; the pleural liquid is recovered by aspiration, and its volume is measured. The leukocytic cells are counted using the "cell counter" technique. The results are expressed as the number of leukocytes in the exudate expressed with respect to 100 g of animal weight and compared with those of the control lot.

Q: Which “correlation of duration of action with plasma concentrations” value [1] does the source give for `O=C1c2ccccc2C(=O)c2sc(-c3ccco3)nc21` [Example n, 4,9-Dihydro-4,9-dioxo-2-(2-furyl)-naphtho[2,3-d]thiazole] here?
A: correlates with its measured plasma concentrations

Q: What about the “dose dependence of oral effect on capillary resistance” value [1] of the same compound?
A: dose dependent over a broad range of doses

Q: What about the “duration of action on capillary resistance” value [1] of the same compound?
A: at least 6 h

Q: And the “Increase of capillary resistance, effects after 4 h” value ([1]; 0.1 mg/kg, 4 h, * granulometry: 0.5-0.6 mm)?
A: 45 % of the control

Q: What about the “Increase of capillary resistance, effect after 6 h” value ([1]; 0.1 mg/kg, 6 h, * granulometry: 0.5-0.6 mm) of the same compound?
A: 45 % of the control

Q: What about the EC50 [2] of the same compound?
A: 300 nM

Q: And the arteriolar diameter [3]?
A: not the arteriolar diameter

Q: And the histamine-induced vascular hyperpermeability [3]?
A: reduces the vascular hyperpermeability

Q: And the veinule diameter [3]?
A: reduces the veinule diameter

Q: And the “volume of pulmonary exudate” value [4]?
A: significantly decreases the volume of pulmonary exudate
